Laboratory results: US6943007B2, “Immuno-stimulating polysaccharide substance from Phellinus spp. strain and use thereof” (Korea Institute of Science and Technology, priority 1998, dated 2005)

Key:
[1] = system: B16F10 cutaneous cancer cells; experiment: Viability of mice implanted peritoneally with B16F10 cells, immunochemotherapy co-administration (60 days); type: in vivo, mouse; settings: for body weight during the test: all test groups, alone or in combination, 60-day test; for Proportion (%): untreated = 100
Source text: (§1) A homogeneous plantation test system of B16F10 cutaneous cancer cell was utilized for the measurement of the anticancer activity upon co-administration of the polysaccharide substance and adriamycin. The cutaneous cancer cells were implanted in the peritoneal cavity of mice. Adriamycin was peritoneally administrated to the mice for 12 days after tumor implantation while the polysaccharide substance was peritoneally administrated from a week before the implantation to 12 days after the implantation. For 60 days, the viability of the mice was recorded everyday. Adriamycin was used at such low amounts as not to damage the mice.
The cutaneous cancer cells were implanted in the peritoneal cavity of mice. […] For 60 days, the viability of the mice was recorded everyday.
The cutaneous cancer cells were implanted in the peritoneal cavity of mice. […] For 60 days, the viability of the mice was recorded everyday. Cisplastin was used at such low amounts as not to damage the mice.
as §1, with “5-fluoro uracil, as in the above experiments.” for “adriamycin.”, “5-fluoro uracil” for “Adriamycin”

[2] = system: B-cells; experiment: B-cell antibody-forming cell method; type: cell-based, mice; settings: 10 μg/mL
Source text: A better understanding of the present invention may be obtained through the following examples which are set forth to illustrate, but are not to be construed as the limit of the present invention. In the following examples, splenocytes taken from B6C3F mice were used for the measurement of the immuno-stimulating activity of the polysaccharide substances isolated from Phellinus linteus Yoo and other Phellinus spp. First, the splenocytes were immunized for 2 days by treatment with the substances and lipopolysaccharide as a positive control. The antibodies formed were measured by a spectrophotometer and considered as a standard for the immuno-stimulating activity. The effect of the polysaccharide substance on the proliferation of T-cells was measured by a mixed lymphocyte response technique. To detect the proliferation of lymphocytes, nuclear DNA which was newly synthesized in lymphocytes was measured by using ^3H-thymidine. In this example, B-cells were counted by use of an antibody-forming cell method and the proliferation of T-cells was measured by a mixed lymphocyte response technique. In addition, in order to detect the effect of the polysaccharide substance on the proliferation of lymphocytes, the nuclear DNA which was newly synthesized was measured by using ^3H-thymidine.

[3] = system: NCl-H23 lung cancer cells; experiment: Human cancer cells implanted subcutaneously in nude mice; type: in vivo
Experimental: The activity of the polysaccharide substance against human cancer was assayed using NCl-H23, a lung cancer cell line. Nude mice were subcutaneously implanted with NCl-H23 lung cancer cells. The polysaccharide substance and adriamycin were peritoneally administrated to the nude mice for 12 days after cancer cell implantation. The size of a mass of the cancer cells was measured and the cancer cells were separated and weighed on the 19th day after cancer cell implantation. Because the nude mice were devoid of T-cells, their immunological competency was generally attributed to the activity of natural killer cells or macrophage cells. Therefore, the immunological enhancement obtained when administrating the polysaccharide substance was meditated through these two type cells.

[4] = system: B16F10 cutaneous cancer cells; experiment: Lung metastasis of B16F10 cells implanted in tail veins; type: in vivo, C57BL/6 mice; settings: 14th day
Source text: In order to test the polysaccharide substance for the prevention of cancer metastasis, B16F10 cutaneous cancer cells were implanted in the tail veins of C57BL/6 mice. On the 14th day after implantation, the lungs were isolated from the mice to investigate whether or to what extent cancer metastasis occurred. Adriamycin was peritoneally administrated to the mice for 12 days after tumor implantation while the polysaccharide substance was peritoneally administrated from a week before the implantation to 12 days after the implantation.

[5] = system: B16F10 mouse cutaneous cancer cells; experiment: Direct cytotoxicity, sulforhodamin B method; type: cell-based; settings: 2nd day after treatment
[6] = system: NCl-H23 human lung cancer cells; experiment: Direct cytotoxicity, sulforhodamin B method; type: cell-based; settings: 2nd day after treatment

Compound: N.N.[Cl][Pt][Cl] [C.P, Cisplatin]
- Nos. of viable mice on the 60th day ([1]; C.P 0.5 mg/kg): 0/10
- Avg. Viability ([1]; C.P 0.5 mg/kg peritoneally for 12 days after implantation): 33.0 days
- Avg. Viability ([1]; C.P 0.5 mg/kg peritoneally for 12 days after implantation, listed as Cisplatin): 33 days
- Nos. of viable mice on the 60th day ([1]; C.P 1.5 mg/kg): 2/10

Compound: lipopolysaccharide [LPS]
- B-Cell Antibody-forming [2]: 0.81 ± 0.23 Abs 576 nm

Compound: COc1cccc2c1C(=O)c1c(O)c3c(c(O)c1C2=O)C[C@@](O)(C(=O)CO)C[C@@H]3O[C@H]1C[C@H](N)[C@H](O)[C@H](C)O1 [Adriamycin, adriamycin]
- Nos. of viable mice on the 60th day ([1]; Am 0.1 mg/kg): 0/10
- Nos. of viable mice on the 60th day ([1]; Am 0.3 mg/kg): 2/10
- body weight during the test [1]: did not lose body weight
- Cell size ([3]; 14th day, Am 1 mg/kg peritoneally for 12 days after implantation): Am^2 (1 mg/kg) 12 mm^3
- Final Cancer Weight ([3]; 19th day after implantation, Adriamycin 1 mg/kg): 95
- body weight of tested mice ([3]; nude mice, all test groups): did not gain or lose body weight
- Nos. of Spots (cancer spots on the lungs) ([4]; Adriamycin 1 mg/kg peritoneally for 12 days): 197
- Nos. of Spots (cancer spots on the lungs) ([4]; Adriamycin 3 mg/kg): 172
- cell quantity (untreated = 100%) ([5]; 1 μg/mL): 29%
- cell quantity (untreated = 100%) ([5]; 3 μg/mL): 9%
- cell quantity (untreated = 100%) ([5]; 10 μg/ml): −10%
- cell quantity (untreated = 100%) ([5]; 30 μg/mL): −10%
- cell quantity (untreated = 100%) ([6]; 1 μg/mL): 71%
- cell quantity (untreated = 100%) ([6]; 3 μg/mL): 39%
- cell quantity (untreated = 100%) ([6]; 10 μg/ml): 7%
- cell quantity (untreated = 100%) ([6]; 30 μg/mL): −1%

Compound: CO[C@@]12[C@H](COC(N)=O)C3=C(C(=O)C(C)=C(N)C3=O)N1C[C@@H]1N[C@@H]12 [M.C, Mitomycin C]
- Nos. of viable mice on the 60th day ([1]; M.C 0.2 mg/kg): 0/10
- Avg. Viability ([1]; M.C 0.2 mg/kg peritoneally for 12 days after implantation): 32.5 days
- Proportion (%) ([1]; M.C 0.2 mg/kg): 179.6%
- Avg. Viability ([1]; M.C 0.6 mg/kg): 38.0 days
- Nos. of viable mice on the 60th day ([1]; M.C 0.6 mg/kg): 1/10
- Proportion (%) ([1]; M.C 0.6 mg/kg): 209.9%

Compound: O=c1[nH]cc(F)c(=O)[nH]1 [5-FU, 5-fluoro uracil]
- Nos. of viable mice on the 60th day ([1]; 5-FU 1 mg/kg): 0/10
- Avg. Viability ([1]; 5-FU 1 mg/kg peritoneally for 12 days after implantation): 33.0 days
- Nos. of viable mice on the 60th day ([1]; 5-FU 3 mg/kg): 2/10
- body weight during the test [1]: did not lose body weight
